Reference: PubChem BioAssay AID463204 (Broad Institute, 2010)
Active and inactive are the calls of the source.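 How the source made its calls: active means AC50 no more than ten times the top concentration tested, that is within one log above it; inconclusive means flat curve fit with activity between 30% and 70%, or invalid poor fit; inactive means AC50 beyond ten times the top tested dose.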

System: S. cerevisiae Mot1-301 ts growth rescue, BacTiter-Glo ATP luminescence
Test: growth rescue of Mot1-301 ts yeast, confirmation, SUMOylation pathway inhibitor project, whole organism, S. cerevisiae, Mot1-301 ts mutant, luminescence, dose retest (AID 463204);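 further: growth at restrictive 38.5 degrees C of Mot1-301 OY566 strain; actives raise luminescence by restoring growth of the ts mutant at high temperature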

| Compound | AC50 |
| --- | --- |
| OC1(c2ccc(F)cc2)CC2CCC(C1)N2Cc1nnnn1C1CCCCC1 (stereo unspecified) | > 42 µM (inactive) |
| CC1(C(=O)Nc2cccc(-n3cnnn3)c2)Cc2ccccc2C(=O)O1 (stereo unspecified) | > 42 µM (inactive) |
| COc1cccc(OC)c1OCC(O)CN1CCN(c2ccccc2)CC1 (stereo unspecified) | > 42 µM (inactive) |
| CCN(CC)C(=O)C1CCCN(c2ccc([N+](=O)[O-])cc2/C=N/NC(=O)c2cccc(Br)c2)C1 (stereo unspecified) | > 42 µM (inactive) |
| Nc1ccc(NC(=O)c2ccco2)c(Cl)c1 | > 42 µM (inactive) |
| O=C(CCSc1ccccc1)NNC(=O)c1ccccc1F | > 42 µM (inactive) |
| CCCCC(=O)Nc1nnc(/C=C/c2ccc(OC)cc2)s1 | > 42 µM (inactive) |
| Cc1sc2ncn(C(C)C(=O)OC3CCCCC3)c(=O)c2c1C (stereo unspecified) | > 42 µM (inactive) |
| Cc1ccc(C)n1-c1ccc(N(C)C)cc1 | > 42 µM (inactive) |
| CC(=O)c1cc(C)ccc1OC(=O)c1ccco1 | > 42 µM (inactive) |
| CCOc1ccccc1C(=O)NCc1ccc2c(c1)OCO2 | > 42 µM (inactive) |
| COc1cc2nc(CSc3ncn[nH]3)[nH]c(=O)c2cc1OC | > 42 µM (inactive) |
| Cc1ccc(C(=O)/C=C/Nc2ccccc2C(N)=O)cc1 | > 42 µM (inactive) |
| CC(Oc1ccccc1[N+](=O)[O-])C(=O)N/N=C/c1ccoc1 (stereo unspecified) | > 42 µM (inactive) |
| CN(C)C(=O)CCN1CCOCC1 | > 42 µM (inactive) |
| CC(=O)N(C(C)=O)C1=C(C#N)C2(CCCCC2)Cc2ccccc21 | > 42 µM (inactive) |
| O=C(/C=C/c1ccc(Cl)cc1)NCc1ccncc1 | > 42 µM (inactive) |
| C=C1C(O)[C@@H]2O[C@]3(CC[C@H](/C=C/C(C)[C@@H]4CC(C)=CC5(O[C@H](C[C@@](C)(O)C(=O)O)CCC5O)O4)O3)CC[C@H]2O[C@@H]1C(O)CC(C)[C@H]1OC2(CCCCO2)CCC1C (stereo partly specified) | 26 µM |
| COC(=O)CCCC(=O)NCC1(N(C)Cc2ccccc2)Cc2ccccc2C1 | > 42 µM (inactive) |
| Cc1cc(C)c2c(=O)[nH]cnc2n1 | > 42 µM (inactive) |
| CCC(=O)c1c[nH]c(C(=O)NCCCn2ccnc2)c1 | > 42 µM (inactive) |
| Oc1ccc(Br)cc1/C=N/n1c(COc2ccccc2)n[nH]c1=S | 14.2 µM |
| COc1ccc(OCCC(=O)c2ccc(OC)cc2)cc1 | > 42 µM (inactive) |
| COc1ccc(S(=O)(=O)n2nc(-c3ccc(Cl)cc3)cc2N)cc1OC | > 42 µM (inactive) |
| CCc1nnc2n1N=C(c1ccc(Cl)cc1)CS2 | > 42 µM (inactive) |
| Cc1ccc(NC(=S)NC(NC(=O)c2ccccc2C)C(Cl)(Cl)Cl)c(C)c1 (stereo unspecified) | > 42 µM (inactive) |

| Compound | AC50 |
| --- | --- |
| Cc1ccc(NC2CC(=O)N(c3ccc(N4CCCCC4)cc3)C2=O)cc1 (stereo unspecified) | > 21 µM (inactive) |
| C=C(C)Cn1c(SCC(=O)N/N=C/c2ccccc2OCC(=O)O)nnc1-c1ccc(Br)cc1 | > 42 µM (inactive) |
| COc1ccc(C(=O)NCC(=O)Nc2ccccc2)cc1OC | > 42 µM (inactive) |
| CCOC(=O)c1cc(C#N)c(Oc2ccccc2OC)nc1-c1ccccc1 | > 42 µM (inactive) |
| CCCn1c(=O)c2ccccc2n2c(SCC(=O)N3CCc4ccccc4C3)nnc12 | > 42 µM (inactive) |
| CC(C)[N+]1(C)[C@@H]2CC[C@@H]1CC(OC(=O)C(CO)c1ccccc1)C2 (stereo partly specified) | > 42 µM (inactive) |
| O=c1[nH]cnc2cc(Cl)ccc12 | > 21 µM (inactive) |
| Cc1ccc(C(=O)c2cc([N+](=O)[O-])ccc2N2CCCCC2)cc1C | > 42 µM (inactive) |
| O=C(CN1CCN(Cc2ccc(F)cc2)CC1)NCc1ccccc1 | > 42 µM (inactive) |
| COc1ccc(-c2cc(=O)c3cc(O)ccc3o2)cc1 | > 42 µM (inactive) |
| CC(=O)N(C)c1ccc(N2CCOCC2)c2c1C(=O)c1ccccc1C2=O | > 42 µM (inactive) |
| N#C/C(=C/c1ccc(N2CCCCC2)o1)C(=O)Nc1ccc(Cl)cc1 | > 42 µM (inactive) |
| CN(C)C(=O)c1c2c(nc3ccccc13)CCCC2 | > 42 µM (inactive) |
| Cc1nn(CC(N)=O)c(=O)c2ccccc12 | > 42 µM (inactive) |
| CC1CCCC(C)N1CCCNC(=O)c1csc2c1CCCCC2 (stereo unspecified) | > 42 µM (inactive) |
| COC(=O)[C@@]12CCCCN1[C@H](c1ccc(-c3cccc(Cl)c3)c(OC)c1)[C@H]1C(=O)N(C)C(=O)[C@H]12 | > 42 µM (inactive) |
| CCC(Cc1ccccc1)NC(=O)C1CCN(c2nn3c(=O)cc(C)nc3s2)CC1 (stereo unspecified) | > 42 µM (inactive) |
| O=C(NNS(=O)(=O)c1c(F)cc(F)c(Cl)c1F)C12CC3CC(CC(C3)C1)C2 | 3.45 µM |
| O=C(OC1CCOC1=O)c1cccc(S(=O)(=O)Nc2ccc(F)cc2)c1 (stereo unspecified) | > 42 µM (inactive) |
| C=C(C)Cc1c(C)c(C#N)c2[nH]c3ccccc3n2c1=O | > 42 µM (inactive) |
| O=C(O)CCc1ccc(-c2cccs2)n1NC(=O)c1cccs1 | > 42 µM (inactive) |
| CCOc1ccccc1CN1CCN(Cc2ccon2)CC1CCO (stereo unspecified) | > 42 µM (inactive) |
| Cc1nc(CCNC(=O)c2ccccc2)cs1 | > 42 µM (inactive) |
| CN(C)c1ccc(/C=N\Nc2ccccn2)cc1 | > 42 µM (inactive) |
| O=C(NNC(=O)c1ccccc1O)c1ccco1 | > 42 µM (inactive) |
| N=c1ncn(CC(O)CO)c2nc(N3CCOCC3)[nH]c12 (stereo unspecified) | > 42 µM (inactive) |

| Compound | AC50 |
| --- | --- |
| CCOC(=O)C1(CCOc2ccccc2)CCN(Cc2cccc(OC)c2O)CC1 | > 42 µM (inactive) |
| Cc1cc(NC(=O)c2ccc(N3C(=O)CCC3=O)cc2)no1 | > 42 µM (inactive) |
| O=c1[nH][nH]c(C(F)(F)F)c1C=NCc1cccs1 | > 42 µM (inactive) |
| COc1ccc(CN(CC(=O)NCC2CCCO2)C(=O)CCC(=O)Nc2cc(C)on2)cc1 (stereo unspecified) | > 42 µM (inactive) |
| COC(=O)C1CN(C#N)N(c2ccc(Cl)cc2)C12c1ccccc1-c1ccccc12 (stereo unspecified) | 0.74 µM |
| CN(C(=O)c1ccc(-c2nn(C)c(=O)c3ccccc23)cc1)C1CCCCC1 | > 42 µM (inactive) |
| CC1=C(C(=O)OCc2ccccc2)C(c2cccc(F)c2)NC(=O)N1 (stereo unspecified) | > 42 µM (inactive) |
| CCOc1ccc(C(=O)Nc2ccc(CN3CCOCC3)cc2)cc1Br | > 21 µM (inactive) |
| CN(CC(=O)Nc1sccc1C#N)Cc1ccccc1 | > 42 µM (inactive) |
| O=C(COC(=O)CNC(=O)c1ccc(Cl)cc1)Nc1ncc(C(F)(F)F)cc1Cl | > 42 µM (inactive) |
| O=C1CN(C(=O)COC(=O)c2ccccc2NCc2ccco2)c2ccccc2N1 | > 42 µM (inactive) |
| CCN(CC)C(=O)CSc1nnc(SCc2ccc(Cl)cc2)s1 | > 42 µM (inactive) |
| O=C(NNC(=O)C12CC3CC(CC(C3)C1)C2)c1ccccn1 | 21 µM |
| CCOc1ccc(N(CC(=O)NC2CCC(C)CC2)S(=O)(=O)c2c(C)noc2C)cc1 (stereo unspecified) | > 42 µM (inactive) |
| CN(C(=O)CSc1nc(-c2ccccc2)c(-c2ccccc2)o1)C1CCS(=O)(=O)C1 (stereo unspecified) | > 42 µM (inactive) |
| Cc1sc2ncnc(N3CCC(C(=O)NNC(=O)COc4ccccc4F)CC3)c2c1C | > 42 µM (inactive) |
| O=c1[nH]nc(Cc2ccc(-c3ccccc3Cl)o2)c2ccccc12 | > 42 µM (inactive) |
| C=C(C)C(=O)Nc1cccnc1Oc1ccc(F)cc1F | > 42 µM (inactive) |
| CCN(CC)C(=O)Cn1cc(S(=O)(=O)CC(=O)NCCc2ccc(OC)c(OC)c2)c2ccccc21 | > 42 µM (inactive) |
| c1ccc2nc3c(nc2c1)OCC1CCCCN31 (stereo unspecified) | > 42 µM (inactive) |
| Cc1[nH]oc(=O)c1N=Nc1c(Cl)cccc1Cl | 6.02 µM |
| COc1cc(O)oc1C=Nc1ccc(C(=O)O)cc1 | > 42 µM (inactive) |
| CCOC(=O)N1CCN(C(=O)CNC(=O)c2nn(-c3ccc(OC)c(OC)c3)c(=O)c3ccccc23)CC1 | > 42 µM (inactive) |
| COc1c2ccoc2nc2c(OC)c(OC[C@@H](O)C(C)(C)O)ccc12 | > 42 µM (inactive) |
| Cc1ccc(CN(C)C(=O)c2ccc3c(c2)NC(=O)CS3)o1 | > 42 µM (inactive) |
| COc1ccc(NC2CC(=O)N(C(C)C)C2=O)cc1 (stereo unspecified) | > 42 µM (inactive) |

| Compound | AC50 |
| --- | --- |
| COc1ccc(CCNC(=O)c2cc(-c3ccco3)on2)cc1OC | > 42 µM (inactive) |
| Cc1ccc(S(=O)(=O)N2[C@@H](c3ccccc3)C(C(=O)O)=CC[C@H]2c2ccc(Cl)cc2)cc1 | 8.57 µM |
| COc1cc(C(C2=C(O)CC(C)(C)CC2=O)C2C(=O)CC(C)(C)CC2=O)cc(OC)c1OC (stereo unspecified) | > 42 µM (inactive) |
| CN1C2CCC1CC(OC(=O)c1ccc([N+](=O)[O-])cc1)C2 (stereo unspecified) | > 42 µM (inactive) |
| CCCCn1c(SCC(=O)Nc2cc(C)on2)nnc1-c1ccco1 | > 42 µM (inactive) |
| O=C(CSc1nnc(-c2ccc(Br)cc2)o1)Nc1cccc2ccccc12 | > 42 µM (inactive) |
| O=C1c2cccc3c(N4CCCCC4)ccc(c23)C(=O)N1CCO | > 42 µM (inactive) |
| CCCCn1c2nc3ccccc3nc2c2c(=O)n(CCC)cnc21 | > 42 µM (inactive) |
| c1ccc2c(c1)[nH]c1c(N3CCN(C4CCCCC4)CC3)ncnc12 | > 42 µM (inactive) |
| Cc1ccc(/C=C/C(=O)c2ccc([N+](=O)[O-])o2)cc1 | 3.5 µM |
| O=C(NC1CCCCCC1)C1CCN(S(=O)(=O)c2cccc3cccnc23)CC1 | > 42 µM (inactive) |
| CCN1CCN(CC(=O)N2N=CCC2c2ccccc2)CC1 (stereo unspecified) | > 42 µM (inactive) |
| COC(=O)CSc1ccc(S(=O)(=O)N2CCCCCC2)cc1[N+](=O)[O-] | > 42 µM (inactive) |
| CC1(C)C=C(c2ccc(O)cc2)CC(C)(C)N1 | > 42 µM (inactive) |
| COC(=O)c1cccc(NC(=O)c2ccc[n+]([O-])c2)c1 | > 42 µM (inactive) |
| CN(C)S(=O)(=O)c1cccc(NC(=O)C(c2ccccc2)c2ccccc2)c1 | > 42 µM (inactive) |
| Cc1cc(/C=N/NC(=O)c2ccsc2)c(C)n1-c1cnccn1 | > 42 µM (inactive) |
| O=C(NCCN1CCOCC1)Nc1ccc(Cl)cc1Cl | > 42 µM (inactive) |
| O=C(c1cccnc1)N1CCCC(Nc2ccc(F)cc2)C1 (stereo unspecified) | > 42 µM (inactive) |
| O=C(Nc1ccc(F)cc1)c1ccc(CSc2ccccc2)o1 | > 42 µM (inactive) |
| Cc1cc(C)c2c(Cn3ccnc3)cc(=O)oc2c1 | > 42 µM (inactive) |
| COC(=O)c1ccccc1NC(=O)c1cnn2c(C)cc(C)nc12 | > 42 µM (inactive) |
| CC(C)Oc1ccc(CCC(=O)NNC(=O)c2ccccc2C(=O)O)cc1 | > 42 µM (inactive) |
